Source: US7754753B2, “Analgesic and anti-inflammatory compositions containing Cox-2-inhibitors” (Wyeth LLC, priority 2000, dated 2010)

Tested on: Male Swiss mice
Assay: acetic acid-induced writhing test (mouse writhing model)
Assay type: in vivo
Details: for oral A50 value (antinociceptive dose-response): +30 minutes before acetic acid, 95% confidence limits for ibuprofen 17.57-40.58
Protocol: A modification of the acetic acid-induced writhing test (as disclosed in Porreca, F., H. I. Mosberg, J. R. Omnaas, T. F. Burks and A. Cowan in Supraspinal and spinal potency of selective opioid agonists in the mouse writhing test (Journal of Pharmacology and Experimental Therapeutics 240: 890-894, 1987)) was conducted. The mouse writhing model as described is commonly used to investigate analgesic efficacy and potential synergism with combinations of drugs.
Male Swiss mice weighing 25-30 g were obtained from Ace Laboratories. They were each placed in individual rectangular observation boxes and allowed to acclimate for at least 1 hour. A placebo vehicle of 1% Tween 80/water was prepared.
Groups of 8-10 mice each received the test agent or placebo vehicle (in an amount of 0.25 ml/25 grams of body weight) orally via stomach tube. Those mice that received the placebo vehicle composed the control group. After 20, 30, 40 or 60 minutes, each mouse was injected parenterally with a 0.6% acetic acid solution (0.25 ml/25 g body weight).
Percent inhibition of writhing was expressed as: (Means writhes in control group)−(Writhes by individual mouse)×100/(Mean writhes in control group)
A preliminary study was conducted at +30 minutes to establish antinociceptive dose-response curves for ibuprofen (obtained from Sigma Chemical) and celecoxib (manufactured by G.D. Searle & Co. in 200 mg capsules and marketed under the trademark Celebrex®), respectively.
A second group of mice (n=8-10) received […] of ibuprofen followed immediately by the placebo vehicle. At either +20, +40 or +60 minutes following administration, the animals were injected i.p. with 0.6% acetic acid (0.25 ml/25 g body weight) and run in the writhing test.

[1] = dose 20 mg/kg oral, +30 minutes
[2] = dose 40 mg/kg oral, +30 minutes
[3] = dose 80 mg/kg oral, +30 minutes

Row | Compound | effect of celecoxib on ibuprofen analgesia in words (celecoxib 20 mg/kg given with ibuprofen 29 mg/kg, +20 to +60 min) | antinociceptive activity in words (celecoxib 20 mg/kg oral alone) | Mean % inhibition + s.e.m. (writhing) [1] [%] | Mean % inhibition + s.e.m. (writhing) [2] [%] | Mean % inhibition + s.e.m. (writhing) [3] [%] | oral A50 value (antinociceptive dose-response) (oral) [mg/kg] | Mean % inhibition + s.e.m. (writhing) (time 20 min, ibuprofen 29 mg/kg followed immediately by celecoxib 20 mg/kg or placebo vehicle, oral) [%] | Mean % inhibition + s.e.m. (writhing) (time 40 min, ibuprofen 29 mg/kg followed immediately by celecoxib 20 mg/kg or placebo vehicle, oral) [%] | Mean % inhibition + s.e.m. (writhing) (time 60 min, ibuprofen 29 mg/kg followed immediately by celecoxib 20 mg/kg or placebo vehicle, oral) [%]
1 | Cc1ccc(-c2cc(C(F)(F)F)nn2-c2ccc(S(N)(=O)=O)cc2)cc1 [Celecoxib, 4-[5-(4-methylphenyl)-3-(trifluoromethyl)-1H-pyrazol-1-yl]benzenesulfonamide] | potentiated the ibuprofen through faster onset and duration of action | essentially inactive | 7.5 ± 3.38 | 21.7 ± 4.17 | 28.3 ± 8.34 | > 80 | – | – | –
2 | CC(C)Cc1ccc(C(C)C(=O)O)cc1 (stereo not shown) [Ibuprofen, ibuprofen] | – | – | 38.7 ± 11.2 | 59.4 ± 9.58 | 74.0 ± 4.68 | 29.07 | 36.4 ± 3.2 | 14.1 ± 6.2 | 27.3 ± 8.2
